Assay: Fluorescent detection of Cu2+ in seawater (high salt)
Conditions: 1 μM dye in seawater; zero to 10 μM added Cu2+ (CuCl2)
Experimental: The metal-ion indicators of the present invention can be used to detect low levels of target ions in the presence of very high concentrations of other mono- and divalent cations. For example, a solution of a green fluorescent phenanthroline derivative (as described in Example 1) is diluted into freshly collected, unfiltered seawater to give a dye concentration of 1 μM. Using 10 mM EGTA, pH 7.20, 100 mM KCL in 10 mM MOPS as a standard, the fluorescence emission of the indicator solution is scanned from 450 nm to 650 nm in a Perkin Elmer PE-450 fluorimeter with excitation at 488 nm.

O=C1OC2(c3ccc(O)cc3Oc3cc(O)ccc32)c2ccc(NC(=S)Nc3cc4cccnc4c4ncccc34)cc21
fluorescence emission remaining, of original emission intensity, after added Cu^2+: approximately 10%

Reference: patent publication US6013802A, “Fluorescent conjugates of metal-chelating nitrogen heterocycles” (Molecular Probes, Inc., priority 1997, dated 2000)
